Assay: HILIC, Waters ACQUITY UPLC BEH Amide, 100 × 2.1 mm, 1.7 µm; A: water + 0.125% formic acid + 10 mM ammonium formate; B: 5% water + 95% acetonitrile + 0.125% formic acid + 10 mM ammonium formate; gradient (min/%B) 0/100 2/100 7.7/70 9.5/40 10.25/30 12.75/100 17/100
Conditions: stereoisomer not certain

| Structure (SMILES) | LC retention time [min] |
| --- | --- |
| CN(C)CCCSc1ccccc1NC(=O)C=Cc1ccccc1 [Cinanserin] | 2.61 |
| NC(CCSCC(N)C(=O)O)C(=O)O (centres undefined) [Cystathionine] | 9.91 |
| CC(=O)Nc1ccc(OC2OC(C(=O)O)C(O)C(O)C2O)cc1 (centres undefined) [Acetaminophen glucuronide] | 7.73 |
| Cc1cc2nc[nH]c2cc1C [5,6-Dimethylbenzimidazole] | 1.82 |
| CC(COc1ccccc1Cc1ccccc1)N1CCCCC1 (centres undefined) [Benproperine] | 1.99 |
| CCC(C(N)=O)N1CCCC1=O (centres undefined) [Levetiracetam] | 1.45 |
| CCCCCC=CCC=CCC=CCC=CCCCC(=O)Nc1ccc(O)cc1 [AM 404] | 0.97 |
| NC(=O)CC(N)C(=O)O (centres undefined) [Asparagine] | 8.81 |
| O=[N+]([O-])c1cc[n+]([O-])c2ccccc12 [4-Nitroquinoline-N-oxide] | 1.14 |
| COc1cc2nc(N(C)CCCNC(=O)C3CCCO3)nc(N)c2cc1OC (centres undefined) [Alfuzosin] | 4.29 |
| NC1CCN(c2cccc(Cl)n2)CC1 | 4.85 |
| NC(N)=NC(=O)c1nc(Cl)c(N)nc1N [Amiloride] | 5.52 |
| Nc1nc(=O)n(C2OC(CO)C(O)C2O)cc1CO (centres undefined) [5-Hydroxymethylcytidine] | 7.54 |
| c1ccc2c(-c3nccs3)c[nH]c2c1 [Camalexin] | 1.05 |
| COC1C(O)C(CO)OC1n1cc(C)c(=O)[nH]c1=O (centres undefined) [2'-O-Methyl-5-methyluridine] | 1.75 |
| NCCc1ccccc1 [Phenethylamine] | 4.87 |
| Cc1cn(C2OC(CO)C(O)C2O)c(=O)nc1N (centres undefined) [5-Methylcytidine] | 6.39 |

| Structure (SMILES) | LC retention time [min] |
| --- | --- |
| O=C1CN=C(c2ccccc2)c2cc([N+](=O)[O-])ccc2N1 [Nitrazepam] | 1.2 |
| Nc1ncnc2c1ncn2C1OC(COP(=O)(O)O)C(O)C1O (centres undefined) [Adenosine 5'-monophosphate] | 8.88 |
| CC(CN)C(=O)O (centres undefined) [3-Aminoisobutyric acid] | 7.4 |
| CC(Cc1ccc(C(C)C(=O)O)cc1)C(=O)O (centres undefined) [Carboxyibuprofen] | 1.11 |
| CC(O)(CS(=O)(=O)c1ccc(F)cc1)C(=O)Nc1ccc(C#N)c(C(F)(F)F)c1 (centres undefined) [Bicalutamide] | 0.99 |
| CCOC(=O)c1ncn2c1CN(C)C(=O)c1cc(F)ccc1-2 [Flumazenil] | 1.08 |
| O=c1cc[nH]c2ccccc12 [4-Hydroxyquinoline] | 1.69 |
| CCOC(=O)C1=C(COCCN)NC(C)=C(C(=O)OC)C1c1ccccc1Cl (centres undefined) [Amlodipine] | 4.24 |
| c1cncc(C2CCCN2)c1 (centres undefined) [Nornicotine] | 5.98 |
| CC(=O)OCc1ccccc1 [Benzylacetate] | 8.71 |
| Cc1nnc2n1-c1ccc(Cl)cc1C(c1ccccc1Cl)=NC2 [Triazolam] | 1.3 |
| COc1cc2c(cc1OC)C(=O)C(CC1CCN(Cc3ccccc3)CC1)C2 (centres undefined) [Donepezil] | 2.44 |
| NC(=O)c1[nH]cnc1N [5-Aminoimidazole-4-carboxamide] | 4.18 |
| O=C1Nc2ccc(Cl)cc2C(C#CC2CC2)(C(F)(F)F)O1 (centres undefined) [Efavirenz] | 0.98 |
| Cc1ccc(-c2nc3ccc(C)cn3c2CC(=O)N(C)C)cc1 [Zolpidem] | 1.62 |
| NC(Cc1cccc(O)c1)C(=O)O (centres undefined) [3-Hydroxyphenylalanine] | 7.44 |
| CN1C(=O)CCC1c1cccnc1 (centres undefined) [Cotinine] | 1.49 |

Next, values leading:

| LC retention time [min] | Structure (SMILES) |
| --- | --- |
| 8.02 | NCCC(=O)O [beta-Alanine] |
| 1.84 | OCC1OC(O)C(O)C(O)C1O (centres undefined) [Glucose] |
| 2.01 | CC[N+](C)(CC)CCOC(=O)C(O)(c1ccccc1)C1CCCCC1 (centres undefined) [Oxyphenonium] |
| 5.33 | O=c1cc(-c2ccc(O)cc2)oc2c(C3OC(CO)C(O)C(O)C3O)c(O)cc(O)c12 (centres undefined) [Vitexin] |
| 5.7 | CCCNC1CCc2nc(N)sc2C1 (centres undefined) [Pramipexole] |
| 4.28 | CC1(C)SC2C(N=CN3CCCCCC3)C(=O)N2C1C(=O)O (centres undefined) [Mecillinam] |
| 1 | CC#CC1(O)CCC2C3CCC4=CC(=O)CCC4=C3C(c3ccc(N(C)C)cc3)CC21C (centres undefined) [Mifepristone] |
| 4.61 | CC(=O)OCC1OC(Oc2c(-c3ccc(O)c(O)c3)oc3cc(O)cc(O)c3c2=O)C(O)C(O)C1O (stereo not drawn) [Quercetin-3-O-beta-glucopyranosyl-6'-acetate] |
| 3.24 | COC(=O)CC(O)(CCCC(C)(C)O)C(=O)OC1C(OC)=CC23CCCN2CCc2cc4c(cc2C13)OCO4 (centres undefined) [Homoharringtonine] |
| 6 | Cc1cc2nc3c(=O)[nH]c(=O)nc-3n(CC(O)C(O)C(O)CO)c2cc1C (centres undefined) [Riboflavin] |
| 7.4 | CN(C)CC(=O)O [N,N-Dimethylglycine] |
| 0.92 | CSCCC(=O)C(=O)O [alpha-Keto-gamma-(methylthio)butyric acid] |
| 2.65 | CC(Oc1c(Cl)cccc1Cl)C1=NCCN1 (centres undefined) [Lofexidine] |
| 7.7 | Cc1ncc(COP(=O)(O)O)c(C=O)c1O [Pyridoxal-5-phosphate] |
| 2.93 | COCCCCC(=NOCCN)c1ccc(C(F)(F)F)cc1 [Fluvoxamine] |
| 8.33 | NCC(=O)O [Glycine] |
| 1.4 | O=c1c(O)c(-c2ccc(O)cc2)oc2cc(O)cc(O)c12 [Kaempferol] |
| 2.87 | CC1CN(CCCn2c3ccccc3c3ccccc32)CC(C)N1 (centres undefined) [Rimcazole] |
| 9.26 | CC(=O)NC1C(O)CC(O)(C(=O)O)OC1C(O)C(O)CO (centres undefined) [N-Acetylneuraminic acid] |
| 7.83 | O=C(O)C1CCCCN1 (centres undefined) [Pipecolic acid] |

| LC retention time [min] | Structure (SMILES) |
| --- | --- |
| 0.98 | N#Cc1ccc(C(c2ccc(C#N)cc2)n2cncn2)cc1 [Letrozol] |
| 2.88 | O=C(O)CNC(=O)Cc1ccccc1 [Phenylacetylglycine] |
| 8.11 | CC(=O)NC(CC(=O)O)C(=O)NC(CCC(=O)O)C(=O)O (centres undefined) [N-Acetyl-Asp-Glu] |
| 2.49 | CC1COc2c(C3(N)CC3)c(F)cc3c(=O)c(C(=O)O)cn1c23 (centres undefined) [Pazufloxacin] |
| 5.11 | O=C(O)C(=O)Cc1c[nH]c2ccccc12 [Indole-3-pyruvic acid] |
| 1.29 | O=C(c1ccccc1)c1ccc2n1CCC2C(=O)O (centres undefined) [Toradol] |
| 9.72 | O=P(O)(O)OCC1OC(OC2OC(CO)C(O)C(O)C2O)C(O)C(O)C1O (centres undefined) [Trehalose-6-phosphate] |
| 9.07 | NC(CCC(=O)NC(CS)C(=O)NCC(=O)O)C(=O)O (centres undefined) [Glutathione (reduced)] |
| 7.67 | CCC(C)C(NC(=O)CN)C(=O)O (centres undefined) [Gly-Ile] |
| 1.08 | Cc1ncc([N+](=O)[O-])n1CC(O)CCl (centres undefined) [Ornidazole] |
| 1.3 | CC(C)C1CCC(C(=O)NC(Cc2ccccc2)C(=O)O)CC1 (centres undefined) [Nateglinide] |
| 9.38 | CC(C)C(NC(=O)C(N)CCCCN)C(=O)O (centres undefined) [Lys-Val] |
| 2.13 | Cc1ccc(O)c(C(CCN(C(C)C)C(C)C)c2ccccc2)c1 (centres undefined) [Tolterodine] |
| 8.73 | NC(=O)NCCCC[C@H](N)C(=O)O [L-Homocitrulline] |
| 1.38 | O=C(O)C=Cc1ccc(O)cc1 [p-Coumaric acid] |
| 8.98 | NC(CCC(=O)NC(CS)C(=O)O)C(=O)O (centres undefined) [gamma-Glutamyl-cysteine] |
| 2.57 | Cc1cn(C2CC(O)C(CO)O2)c(=O)[nH]c1=O (centres undefined) [Thymidine] |
| 0.99 | C#CC1(O)CCC2C3CCC4=CC(=O)CCC4C3CCC21CC (centres undefined) [Levonorgestrel] |
| 4.62 | COc1ccc2c3c1OC1CC(O)C=CC31CCN(C)C2 (centres undefined) [Galanthamine] |
| 1.45 | Cc1cccc(Nc2ccncc2S(=O)(=O)NC(=O)NC(C)C)c1 [Torasemide] |

Reference: the RepoRT retention time repository
